# According to US20230149418A1, “METHODS AND SYNERGIC COMPOSITIONS FOR TREATING VIRAL INFECTIONS” (HADASIT MEDICAL RESEARCH SERVICES AND DEVELOPMENT LTD., priority 2018, published 2023):
# Several values for one entry are separate records, joined by “and”; a condition that tells them apart may be missing. Equal entries are not always repeated. Where two headings read alike, the source gives them in different places.
# How the values were obtained:
# HCMV TB40/E strain = test: Plaque reduction assay, HCMV TB40/E strain in human foreskin fibroblasts, single drugs and 2-drug combinations (Chou-Talalay); assay type: cell-based, human cytomegalovirus; conditions: for Dose of drug alone at Fa 0.9: Fa 0.9, drug alone; for EC50: Human betaherpesvirus 5, Fibroblast
# Experimental: The CMV strain used was TB40/E. The CMV strain was propagated and tittered in human foreskin fibroblasts (HFF) cells. Cell-free virus stocks and cell-associated clinical isolates were maintained at -70° C. Viral stocks were tittered by serial 10-fold dilution in 24-well tissue culture plates containing HFF monolayers overlaid with agarose-medium. After incubation for 7 to 14 days, plaques were enumerated, and virus titer was determined as plaque forming units (PFU) per milliliter (ml). Stocks of artemisone (10 mM), ganciclovir (10 mM), BDCRB (120 mM), brincidofovir (1 mM), maribavir (10 mM) and letermovir (10 mM) were prepared in DMSO or H2O.
# Cell monolayers were inoculated in 24-well culture plates with 0.2 ml of virus suspension containing 60 to 100 PFU per well. After adsorption for 60 -120 min at 37° C., the inoculum was removed, and culture medium was replaced with agarose-medium overlay containing serial concentrations of the tested drug(s). Plates were incubated for 7-14 days at 37° C. in a 5% CO2 incubator. Plaques were then counted microscopically.
# The effect of a combination of artemisone with each one of ganciclovir (HCMV DNA polymerase), BDCRB (HCMV terminase inhibitor), brincidofovir (HCMV DNA polymerase inhibitor), maribavir (HCMV UL97 kinase inhibitor) and letermovir (HCMV terminase inhibitor) was evaluated by the classical plaque reduction assay. The in vitro activity of each of the above mentioned antiviral compounds alone or in combination with artemisone was evaluated by the classical plaque reduction assay, using HCMV TB40/E strain in human foreskin fibroblasts cells. The concentration of each antiviral compound that reduced the plaque formation by 50% (EC50) was determined as previously described in Wolf DG et al., J Clin Invest. 1995;95:257-63. The individual EC50 values in human foreskin fibroblasts were as follows: artemisone EC50 - 1 µM; ganciclovir EC50 - 1 µM; maribavir EC50 - 1 µM; BDCRB EC50 - 0.5 µM; letermovir EC50 - 5 nM; brincidofovir EC50 -1 nM.
# For the 2-drug combination studies, the EC50 value of each drug was used to determine an equipotent ratio between the two compounds (EC50 of drug 1 / EC50 of drug 2). Serial 2-fold dilutions of a mixture comprising artemisone and another antiviral compound at initial concentrations equivalent to 4-fold the equipotent ratio were added to duplicate wells of cells infected with HCMV. Overall, 5 different concentrations of the drug combinations were used: 4xEC50, 2xEC50, 1xEC50,0.5xEC50,0.25xEC50. The cell monolayers were inoculated in 24-well culture plates with 0.2 ml of virus suspension containing 60 to 100 plaque-forming unit (PFU) per well; the Multiplicity of infection (MOI) was 0.001-0.002 PFU/cell).
# D1 and D2 are the doses of the two drugs, and Dx is a dose causing to x% effect (LD0.5 is EC50). Briefly, the software extrapolated a combination index (CI) representing the interaction between the two drugs at specified levels of virus inhibition (that is 50%, 75%, 90%, 95%) versus the percentages of the inhibition induced by each drug alone and in combination (equation 16 in Chou).
# A weighted average CI (CIwt) was then calculated for each combination as (CI50+ 2×CI75+3×CI90+4×CI95)/10, to access the drug combinatory effects.
# The dose reduction index (DRI) was then calculated as described in Chou. In general, the DRI measures the fold of dose reduction of each drug in the combination at a given effect level compared with the doses of each drug alone. For each one of the below tables: Fa - fraction of virus affected; doses are provided in µm.
# [1] = male rats, 50 mg/kg for 14 days; cited from earlier work
# [2] = preclinical in vitro and in vivo screens; cited from earlier work
# human endothelial cells = conditions: compared with dihydroartemisinin; cited from earlier work
structure (smiles),measurement,setting,value
CC1CCC2[C@@H](C)[C@H](N3CCS(=O)(=O)CC3)OC3O[C@]4(C)CCC1C32OO4 (stereo in doubt) [artemisone],Dose of drug alone at Fa 0.75,"HCMV TB40/E strain; Fa 0.75, drug alone, listed as Art",2.189 µm and 2.23 µm and 3.071 µm
same,Dose of drug alone at Fa 0.9,HCMV TB40/E strain,7.66 µm
same,Dose of drug alone at Fa 0.9,HCMV TB40/E strain; listed as Art,7.658 µm and 7.87 µm and 8.905 µm
same,Dose of drug alone at Fa 0.95,"HCMV TB40/E strain; Fa 0.95, drug alone, listed as Art",17.9447 µm and 18.59 µm and 18.3723 µm
same,Dose of drug alone at Fa 0.97,"HCMV TB40/E strain; Fa 0.97, drug alone, listed as Art",32.8918 µm and 34.26 µm and 30.7567 µm
same,EC50,"HCMV TB40/E strain; Fa 0.5, drug alone, read-out: Dose of drug alone at Fa 0.5",626 nM
same,EC50,"HCMV TB40/E strain; drug alone, human foreskin fibroblasts, read-out: EC50 (concentration that reduced the plaque formation by 50%)",1000 nM
same,DRI (dose reduction index),"HCMV TB40/E strain; combination artemisone + brincidofovir, Fa 0.05",0.16
same,DRI (dose reduction index),"HCMV TB40/E strain; combination artemisone + brincidofovir, Fa 0.5",1.44
same,DRI (dose reduction index),"HCMV TB40/E strain; combination artemisone + brincidofovir, Fa 0.75",3.24
same,DRI (dose reduction index),"HCMV TB40/E strain; combination artemisone + brincidofovir, Fa 0.9",up to 7
same,DRI (dose reduction index),"HCMV TB40/E strain; combination artemisone + brincidofovir, Fa 0.9, listed as Art",7.28
same,DRI (dose reduction index),"HCMV TB40/E strain; combination artemisone + brincidofovir, Fa 0.95",12.65
same,DRI (dose reduction index),"HCMV TB40/E strain; combination artemisone + brincidofovir, Fa 0.97",18.74
same,DRI (dose reduction index),"HCMV TB40/E strain; combination artemisone + cidofovir, Fa 0.05",0.3256
same,DRI (dose reduction index),"HCMV TB40/E strain; combination artemisone + cidofovir, Fa 0.5",2.047
same,DRI (dose reduction index),"HCMV TB40/E strain; combination artemisone + cidofovir, Fa 0.75",4.066
same,DRI (dose reduction index),"HCMV TB40/E strain; combination artemisone + cidofovir, Fa 0.9",8.07
same,DRI (dose reduction index),"HCMV TB40/E strain; combination artemisone + cidofovir, Fa 0.9, listed as Art",8.075
same,DRI (dose reduction index),"HCMV TB40/E strain; combination artemisone + cidofovir, Fa 0.95",12.8761
same,DRI (dose reduction index),"HCMV TB40/E strain; combination artemisone + cidofovir, Fa 0.97",up to 17.9
same,DRI (dose reduction index),"HCMV TB40/E strain; combination artemisone + cidofovir, Fa 0.97, listed as Art",17.9464
same,DRI (dose reduction index),"HCMV TB40/E strain; combination artemisone + ganciclovir, Fa 0.05",0.2822
same,DRI (dose reduction index),"HCMV TB40/E strain; combination artemisone + ganciclovir, Fa 0.5",1.792
same,DRI (dose reduction index),"HCMV TB40/E strain; combination artemisone + ganciclovir, Fa 0.75",3.573
same,DRI (dose reduction index),"HCMV TB40/E strain; combination artemisone + ganciclovir, Fa 0.9, listed as Art",7.123
same,DRI (dose reduction index),"HCMV TB40/E strain; combination artemisone + ganciclovir, Fa 0.95",11.39
same,DRI (dose reduction index),"HCMV TB40/E strain; combination artemisone + ganciclovir, Fa 0.95, listed as Art",11.3872
same,DRI (dose reduction index),"HCMV TB40/E strain; combination artemisone + ganciclovir, Fa 0.97",15.9002
same,DRI (dose reduction index),"HCMV TB40/E strain; combination artemisone + letermovir, Fa 0.05",0.2276
same,DRI (dose reduction index),"HCMV TB40/E strain; combination artemisone + letermovir, Fa 0.5",1.624
same,DRI (dose reduction index),"HCMV TB40/E strain; combination artemisone + letermovir, Fa 0.75",3.38
same,DRI (dose reduction index),"HCMV TB40/E strain; combination artemisone + letermovir, Fa 0.9",7.04
same,DRI (dose reduction index),"HCMV TB40/E strain; combination artemisone + letermovir, Fa 0.9, listed as Art",7.037
same,DRI (dose reduction index),"HCMV TB40/E strain; combination artemisone + letermovir, Fa 0.95",11.5866
same,DRI (dose reduction index),"HCMV TB40/E strain; combination artemisone + letermovir, Fa 0.97",up to 16
same,DRI (dose reduction index),"HCMV TB40/E strain; combination artemisone + letermovir, Fa 0.97, listed as Art",16.5217
same,DRI (dose reduction index),"HCMV TB40/E strain; combination artemisone + maribavir, Fa 0.05",7.032
same,DRI (dose reduction index),"HCMV TB40/E strain; combination artemisone + maribavir, Fa 0.5",15.7458
same,DRI (dose reduction index),"HCMV TB40/E strain; combination artemisone + maribavir, Fa 0.75",21.2706
same,DRI (dose reduction index),"HCMV TB40/E strain; combination artemisone + maribavir, Fa 0.9",28.7
same,DRI (dose reduction index),"HCMV TB40/E strain; combination artemisone + maribavir, Fa 0.9, listed as Art",28.7339
same,DRI (dose reduction index),"HCMV TB40/E strain; combination artemisone + maribavir, Fa 0.95",35.2558
same,DRI (dose reduction index),"HCMV TB40/E strain; combination artemisone + maribavir, Fa 0.97",40.8
same,DRI (dose reduction index),"HCMV TB40/E strain; combination artemisone + maribavir, Fa 0.97, listed as Art",40.7793
same,Tolerability,[1],no effect as compared to controls
same,Neurotoxicity,[2],does not elicit neurotoxicity
same,Anti-angiogenic activity,human endothelial cells,significantly less anti-angiogenic than dihydroartemisinin
